{
  "source": "the COVID Moonshot data (paper PMC7615835)",
  "note": "“And” between values parts separate entries of the source, which are not always exact repeats. Identical values can stand only once.",
  "data": [
    {"molecular_target": "SARS-CoV-2 Main Protease (SARS-CoV-2) (UniProt P0DTD1)", "values": [
      {"molecule": "Cc1ccc(N(Cc2cscn2)C(=O)Cc2cncc3ccccc23)cc1", "IC50": "8.09 µM"},
      {"molecule": "CC(C)c1ccncc1NC(=O)Cc1cccc(Cl)c1", "IC50": "19.5 µM"},
      {"molecule": "Cc1ccc(CC(=O)Nc2cncc3ccccc23)cc1", "IC50": "58.4 µM"},
      {"molecule": "CC(C)(C)c1ccc(N(C(=O)c2ccc(O)c(=O)o2)C(C(=O)NCCc2cccc(F)c2)c2cccnc2)cc1", "note": "(stereo not drawn)", "IC50": "76.5 µM"},
      {"molecule": "O=C(Cc1cc(Cl)cc(Nc2ccccc2Sc2ccccc2)c1)Nc1cncc2ccccc12", "IC50": "2.47 µM"},
      {"molecule": "CC(C)(C)c1ccc(N(C(=O)c2cocn2)C(C(=O)NC2CC(F)(F)C2)c2cccnc2)cc1", "note": "(stereo not drawn)", "IC50": "2.35 µM"},
      {"molecule": "Cc1ccncc1NC(=O)Cc1cc(Cl)cc(NS(C)(=O)=O)c1", "IC50": "21.8 µM"},
      {"molecule": "Cc1ccc2c(NC(=O)Cc3cccc(Cl)c3)cncc2c1", "IC50": "1.24 µM"},
      {"molecule": "O=C(NCCc1cccc(F)c1)C(c1cccnc1)N(C(=O)c1cnc[nH]1)c1cccc(Oc2cccnn2)c1", "note": "(stereo not drawn)", "IC50": "> 99 µM"},
      {"molecule": "O=C(Nc1cncc2ccccc12)C1CCOc2c(OCc3ccccn3)cc(Cl)cc21", "note": "(stereo not drawn)", "IC50": "6.43 µM"},
      {"molecule": "O=C(Cc1cc(Cl)cc(Nc2cccc(Cl)c2Br)c1)Nc1cncc2ccccc12", "IC50": "1.94 µM"},
      {"molecule": "Nc1cncc2c1CCCN2C(=O)Cc1cccc(Cl)c1", "IC50": "25.5 µM and 41.4 µM"},
      {"molecule": "CS(=O)(=O)c1ccc2c(NC(=O)C34CC(C3)Oc3ccc(Cl)cc34)cncc2c1", "IC50": "22.9 µM"},
      {"molecule": "COc1ccc(NC(=O)[C@@H]2CN(C(=O)CCl)CCN2S(=O)(=O)c2ccsc2)cc1", "note": "(stereo in doubt)", "IC50": "0.45 µM"},
      {"molecule": "Cn1cnc2cc(N(C(=O)c3cnc[nH]3)C(C(=O)NCCc3cccc(F)c3)c3cccnc3)ccc21", "note": "(stereo not drawn)", "IC50": "> 99 µM"},
      {"molecule": "CC1(CS(=O)(=O)N2Cc3ccc(Cl)cc3C(C(=O)Nc3cncc4ccc(C(C)(C)O)cc34)C2)CS(=O)(=O)C1", "note": "(stereo not drawn)", "IC50": "2.36 µM"},
      {"molecule": "CC(C)Oc1ccc(N(C(=O)c2cocn2)C(C(=O)NCCc2cccc(F)c2)c2cccnc2)cc1", "note": "(stereo not drawn)", "IC50": "0.609 µM"},
      {"molecule": "O=C1CCCCN1c1ccc(N(Cc2ccccc2)C(=O)Cc2[nH]nc3ccccc23)cc1", "IC50": "39.4 µM"},
      {"molecule": "CC(C)C[C@@H](NC(=O)[C@@H](Cc1ccccc1)NC(=O)[C@H](N)Cc1ccccc1)C(=O)N[C@H](CCCCN)C(=O)N1CCC(N)(C(=O)O)CC1", "note": "(stereo in doubt)", "IC50": "> 99 µM"},
      {"molecule": "Cc1nc(C)c(S(=O)(=O)NCC2CCCC3CC23)s1", "note": "(stereo not drawn)", "IC50": "> 99.5 µM"},
      {"molecule": "O=C(NCCc1cccc(F)c1)C(c1cccnc1)N(C(=O)c1cocn1)c1ccc2c(c1)CCOC2", "note": "(stereo not drawn)", "IC50": "> 99.5 µM"},
      {"molecule": "Cc1ccccc1C(C)N(C(=O)c1cocn1)C(C(=O)NCCc1cccc(F)c1)c1cccnc1", "note": "(stereo not drawn)", "IC50": "> 99.5 µM"},
      {"molecule": "CCOC(=O)c1ccc(NC(=O)CC2SC(=O)N(c3ccccc3)C2=O)cc1", "note": "(stereo not drawn)", "IC50": "2.4 µM"},
      {"molecule": "N#Cc1cc(Cl)c(Nc2cc(Cl)cc(CC(=O)Nc3cncc4ccccc34)c2)c(Cl)c1", "IC50": "1.79 µM"},
      {"molecule": "O=C(Cc1cc(Cl)cc(NCCc2ccc(C(F)(F)F)cc2)c1)Nc1cncc2ccccc12", "IC50": "5.57 µM"},
      {"molecule": "CC(C)(C)c1ccc(N(C(=O)c2cocn2)C(C(=O)NCCN2CCOCC2)c2cccnc2)cc1", "note": "(stereo not drawn)", "IC50": "82.5 µM"},
      {"molecule": "N#Cc1nccn1CCc1cccc(Cl)c1", "IC50": "> 99.5 µM"},
      {"molecule": "Cc1cc(C)n(-c2cc(Cl)cc(CC(=O)Nc3cncc4ccccc34)c2)c(=O)c1CN", "IC50": "2.41 µM"},
      {"molecule": "Cc1ccc(-n2ncc3c(=O)n(CC(N)=O)cnc32)cc1C", "IC50": "> 99.5 µM"},
      {"molecule": "CC(C)(C)c1ccc(N(C(=O)c2cn[nH]c2)C(C(=O)NCCc2cccc(F)c2)c2cccnc2)cc1", "note": "(stereo not drawn)", "IC50": "5.83 µM"},
      {"molecule": "CCOC(=O)c1cc(-c2cc(Cl)cc(CC(=O)Nc3cnccc3C)c2)n[nH]1", "IC50": "> 99.5 µM"},
      {"molecule": "O=C(Cc1cc(Cl)cc(Nc2c(F)c(F)cc(F)c2F)c1)Nc1cncc2ccccc12", "IC50": "2.03 µM"},
      {"molecule": "CC(=O)NCCc1c[nH]c2ccc(O)cc12", "IC50": "> 99.5 µM"},
      {"molecule": "O=C(Cc1cc(Cl)cc(Nc2c(Br)cncc2[N+](=O)[O-])c1)Nc1cncc2ccccc12", "IC50": "1.83 µM"},
      {"molecule": "O=C(NCCc1cccc(F)c1)C(c1cccnc1)N(C(=O)c1cocn1)c1ccc(C2(O)COC2)cc1", "note": "(stereo not drawn)", "IC50": "> 99.5 µM"},
      {"molecule": "CC(C)(C)c1ccc(N(C(=O)c2cocn2)C(C(=O)N2CCC(c3cccc(F)c3)CC2)c2cccnc2)cc1", "note": "(stereo not drawn)", "IC50": "9.46 µM"},
      {"molecule": "N#Cc1cccc(NC(=O)Nc2c[nH]c3ncccc23)c1", "IC50": "63.6 µM"},
      {"molecule": "O=C(Cc1cc(Cl)cc(N[C@H]2C(O)O[C@H](CO)[C@@H](O)[C@@H]2O)c1)Nc1cncc2ccccc12", "note": "(stereo in doubt)", "IC50": "2.92 µM"}
    ]}
  ]
}
